Measurements from patent publication US20230055237A1, “COMPOUNDS AND METHODS FOR THE TREATMENT OF CYSTIC FIBROSIS” (Flatley Discovery Lab, LLC, priority 2019, published 2023).

Target: T1, CFTR (Homo sapiens, UniProt P13569, DEL508-508)
T1 construct: Primary CF airway epithelial cells were obtained from the UNC Cystic Fibrosis Tissue Procurement and Cell Culture Core; host or cells: primary CF airway epithelial cells, differentiated at the air-liquid interface
Assay: Equivalent current assay in primary CF airway epithelial cells (NAUC, combination with 1st site corrector FDL169 or VX-809)
Type: cell-based
Details: 37° C., 24 h
Description: Primary CF airway epithelial cells were obtained from the UNC Cystic Fibrosis Tissue Procurement and Cell Culture Core. The cells are grown at 37° C. in a Heracell 150i incubator using growth media (BEGM, Fischer). […] Two days before the Ussing assay the mucus on the apical surface of the cells was aspirated after incubating with 200 μL of differentiation media for at least thirty (30) minutes. One day before the Ussing assay test compounds were added to the basolateral surface of the cells at various test concentrations dissolved in DMSO. Duplicate wells were prepared giving a n=3 or n=4 protocol.
Cells were treated for 24 hours with various combinations and concentrations of the test articles, reference standard (3 μM VX809 or 3 μM FDL169, positive control). Compounds stock solutions were prepared in DMSO and diluted 1/1000 into ALI media to their final assay concentration. Cells were treated with combination solutions (2 mL of each dilution) and incubated at 37° C. for 24 h.
For the equivalent current assay, cells on four Transwell (24-well) plates were treated. Each Transwell plate was filled with 200 μl of HBS on the apical surface and 2 ml on the basolateral surface. Plates were placed horizontally in a heated mount at 37° C., and equilibrated for several minutes. Resting current was measured for 15 min and then blocked by the apical addition of 5 μM benzamil. After 20 min, 10 μM forskolin and 1 μM VX770 were added to both the apical and basolateral side to stimulate CFTR. An increase in chloride current is seen as an upward deflection of the trace.
The raw data, current vs. time for the Ussing chamber (sampling interval: 10 s) and voltage vs. time and resistance vs. time for the equivalent current assay (sampling interval: 5 minutes) were transferred to Excel (Microsoft Office Professional, version 14.0.7106.5003) for analysis. […] This average is equivalent to the sum of the average forskolin activated and the average VX770-potentiated currents. The average current measured in vehicle (0.1% DMSO) treated cells, Iv, was subtracted from the current for the test article, ITA, or from the corrector reference standard VX809 (3 uM ISTD). For replicate measurements, the average vehicle subtracted response for the test article, was normalized to the average vehicle subtracted inhibitor response of the reference corrector VX809 (3 μM).
A second endpoint, for the equivalent current assay, evaluated was NAUC, the normalized area under the curve (AUC) measuring the response after addition of forskolin and VX770 to the time point right before the addition of the CFTR inhibitor. The AUC is effectively the average response multiplied by the duration of the response.
NAUCTA=[AUCTA−AUCV,ave]/[AUCVx809r,ave−AUCV,ave] (Equation 2).
Experiments were run with a minimum of n=4 replicates per concentration. Since the distribution for the ratio of two normal distributions is a Cauchy distribution, the median value must be used for the average and the average deviation must be used for the error of all normalized data.
E=Emin+(Emax−Emin)/(1+10^((LogEC5OS)*nH)) (Equation 3)

[1] = test compound 10 μM in combination with 1st site corrector VX-809 (3 μM)
[2] = test compound 1 μM in combination with 1st site corrector VX-809 (3 μM)
[3] = test compound 3 μM in combination with 1st site corrector VX-809 (3 μM)
[4] = test compound 1 μM in combination with 1st site corrector FDL169 (3 μM)
[5] = test compound 3 μM in combination with 1st site corrector FDL169 (3 μM)
[6] = test compound 10 μM in combination with 1st site corrector FDL169 (3 μM)

T1 sequence (P13569 with tags, fused parts or gaps DEL508-508): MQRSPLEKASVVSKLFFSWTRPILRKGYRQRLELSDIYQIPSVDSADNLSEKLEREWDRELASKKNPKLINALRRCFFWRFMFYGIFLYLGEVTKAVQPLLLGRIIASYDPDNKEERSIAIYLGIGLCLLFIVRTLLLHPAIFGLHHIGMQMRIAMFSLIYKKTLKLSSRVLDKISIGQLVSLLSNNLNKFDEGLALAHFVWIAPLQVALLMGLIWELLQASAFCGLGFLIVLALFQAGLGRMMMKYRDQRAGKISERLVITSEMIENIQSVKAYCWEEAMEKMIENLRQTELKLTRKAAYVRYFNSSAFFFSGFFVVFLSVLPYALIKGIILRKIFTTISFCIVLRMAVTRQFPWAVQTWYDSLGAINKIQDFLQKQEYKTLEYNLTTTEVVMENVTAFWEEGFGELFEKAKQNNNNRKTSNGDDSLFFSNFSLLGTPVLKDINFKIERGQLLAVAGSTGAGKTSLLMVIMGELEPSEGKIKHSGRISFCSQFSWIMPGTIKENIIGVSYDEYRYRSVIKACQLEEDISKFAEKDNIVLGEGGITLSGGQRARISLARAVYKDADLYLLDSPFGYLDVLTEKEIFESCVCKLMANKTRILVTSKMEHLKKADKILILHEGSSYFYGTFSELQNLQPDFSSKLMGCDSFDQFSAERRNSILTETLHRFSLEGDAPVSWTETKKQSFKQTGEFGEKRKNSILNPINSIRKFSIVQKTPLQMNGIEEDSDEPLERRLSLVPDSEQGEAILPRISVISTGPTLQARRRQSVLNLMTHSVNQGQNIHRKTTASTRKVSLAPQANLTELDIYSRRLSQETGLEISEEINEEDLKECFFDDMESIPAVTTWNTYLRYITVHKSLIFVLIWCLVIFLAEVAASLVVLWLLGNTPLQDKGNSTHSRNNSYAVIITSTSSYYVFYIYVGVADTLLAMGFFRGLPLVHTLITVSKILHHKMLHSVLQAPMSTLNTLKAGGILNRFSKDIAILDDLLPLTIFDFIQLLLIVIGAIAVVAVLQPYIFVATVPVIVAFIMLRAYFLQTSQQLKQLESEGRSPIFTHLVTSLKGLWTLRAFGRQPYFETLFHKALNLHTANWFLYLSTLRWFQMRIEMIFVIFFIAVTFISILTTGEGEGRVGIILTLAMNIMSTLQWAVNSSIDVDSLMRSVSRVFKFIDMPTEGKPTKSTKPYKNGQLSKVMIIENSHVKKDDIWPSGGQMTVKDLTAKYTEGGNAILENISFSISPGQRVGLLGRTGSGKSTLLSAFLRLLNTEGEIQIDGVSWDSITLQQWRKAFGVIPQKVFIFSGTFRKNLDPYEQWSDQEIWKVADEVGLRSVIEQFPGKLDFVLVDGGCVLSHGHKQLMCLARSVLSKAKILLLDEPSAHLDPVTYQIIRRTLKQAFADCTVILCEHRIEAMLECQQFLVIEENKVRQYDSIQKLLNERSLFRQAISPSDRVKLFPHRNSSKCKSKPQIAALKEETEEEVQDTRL

Structure (SMILES)	Nauc @ 10 μM [1]	Nauc @ 1 μM [2]	Nauc @ 3 μM [3]	Nauc @ 1 μM [4]	Nauc @ 3 μM [5]	Nauc @ 10 μM [6]
CC(C)(C)c1cccc(C(C)(C)CNC(=O)[C@H]2[C@H]3CC(F)(F)CN3[C@]3(C(=O)Nc4c(Cl)cc(Cl)cc43)[C@H]2C(=O)O)c1 (racemic) [Example 288b, rac-(1′R,2′S,3R,7a′R)-1′-((2-(3-(tert-butyl)phenyl)-2-methylpropyl)carbamoyl)-5,7-dichloro-6′,6′-difluoro-2-oxo-1′,2′,5′,6′,7′,7a′-hexahydrospiro[indoline-3,3′-pyrrolizine]-2′-carboxylic acid]	+ (NAUC “+” refers to an observed NAUC <140% of positive control)	–	–	–	–	–
COc1c(Cl)cc(N(C)C(=O)[C@H]2[C@H]3CC(F)(F)CN3C3(C(=O)Nc4c(Cl)cc(Cl)cc43)[C@H]2C(=O)O)cc1Cl (some centres unmarked) [Example 291]	+++ (NAUC “+++” refers to an observed NAUC>170% of positive control)	+ (NAUC “+” refers to an observed NAUC <140% of positive control)	+ (NAUC “+” refers to an observed NAUC <140% of positive control)	–	–	–
CC(C)(C)CN(C(=O)[C@H]1[C@@H](C(=O)O)C2(C(=O)Nc3c(Cl)cc(Cl)cc32)N2CC(C)(C)C[C@@H]12)c1cc(Cl)cc(Cl)c1 (single isomer, unassigned) [Example 274.6b, (1′S,2′R,7a′S)-5,7-dichloro-1′-((3,5-dichlorophenyl)(neopentyl)carbamoyl)-6′,6′-dimethyl-2-oxo-1′,2′,5′,6′,7′,7a′-hexahydrospiro[indoline-3,3′-pyrrolizine]-2′-carboxylic acid]	–	–	–	+++ (NAUC “+++” refers to an observed NAUC>170% of positive control)	++ (NAUC “++” refers to an observed NAUC 170-140% of positive control)	+ (NAUC “+” refers to an observed NAUC <140% of positive control)
Cn1c(NC(=O)[C@H]2[C@H]3CC(F)(F)CN3[C@]3(C(=O)Nc4c(Cl)cc(Cl)cc43)[C@H]2C(=O)O)nc2ccccc21 [Example 139]	–	–	–	+ (NAUC “+” refers to an observed NAUC <140% of positive control)	+ (NAUC “+” refers to an observed NAUC <140% of positive control)	–
CN(C(=O)C1C2N(CCC2(F)F)C2(C(=O)Nc3c(Cl)cc(Cl)cc32)C1C(=O)O)c1cc(Cl)cc(Cl)c1 (single isomer, unassigned) [Example 268a, 5,7-dichloro-1′-((3,5-dichlorophenyl)(methyl)carbamoyl)-7′,7′-difluoro-2-oxo-1′,2′,5′,6′,7′,7a′-hexahydrospiro[indoline-3,3′-pyrrolizine]-2′-carboxylic acid]	+ (NAUC “+” refers to an observed NAUC <140% of positive control)	+ (NAUC “+” refers to an observed NAUC <140% of positive control)	+ (NAUC “+” refers to an observed NAUC <140% of positive control)	–	–	–
CN1C(C(F)(F)F)C(C(=O)Nc2cc(Cl)cc(Cl)c2)C(C(=O)O)C12C(=O)Nc1c(Cl)cc(Cl)cc12 (centres unmarked) [Example 43]	++ (NAUC “++” refers to an observed NAUC 170-140% of positive control)	–	+++ (NAUC “+++” refers to an observed NAUC>170% of positive control)	–	–	–
O=C(Nc1cc(Cl)cc(Cl)c1)C1CN(CC(F)(F)F)C2(C(=O)Nc3c(Cl)cc(Cl)cc32)C1C(=O)O (centres unmarked) [Example 79a]	+ (NAUC “+” refers to an observed NAUC <140% of positive control)	+ (NAUC “+” refers to an observed NAUC <140% of positive control)	+ (NAUC “+” refers to an observed NAUC <140% of positive control)	–	–	–
CN(O)C(=O)[C@H]1[C@@H](C(=O)N(C)c2cc(Cl)cc(Cl)c2)[C@H]2CC(F)(F)CN2[C@]12C(=O)Nc1c(Cl)cc(Cl)cc12 [Example 260a, (1′R,2′S,3R,7a′R)-5,7-dichloro-N1′-(3,5-dichlorophenyl)-6′,6′-difluoro-N2′-hydroxy-N1′,N2′-dimethyl-2-oxo-1′,2′,5′,6′,7′,7a′-hexahydrospiro[indoline-3,3′-pyrrolizine]-1′,2′-dicarboxamide]	–	+ (NAUC “+” refers to an observed NAUC <140% of positive control)	+ (NAUC “+” refers to an observed NAUC <140% of positive control)	–	–	–
Cn1cnc(NC(=O)[C@H]2[C@@H](C(=O)Nc3cc(Cl)cc(Cl)c3)[C@H]3CCCN3[C@]23C(=O)Nc2c(Cl)cc(Cl)cc23)c1 (single isomer, unassigned) [Example 237, (1′R,2′S,7a′R)-5,7-dichloro-N1′-(3,5-dichlorophenyl)-N2′-(1-methyl-1H-imidazol-4-yl)-2-oxo-1′,2′,5′,6′,7′,7a′-hexahydrospiro[indoline-3,3′-pyrrolizine]-1′,2′-dicarboxamide]	++ (NAUC “++” refers to an observed NAUC 170-140% of positive control)	+ (NAUC “+” refers to an observed NAUC <140% of positive control)	+ (NAUC “+” refers to an observed NAUC <140% of positive control)	–	–	–
CN(C(=O)[C@H]1[C@H]2CC(F)(F)CN2[C@]2(C(=O)Nc3c(Cl)cc(Cl)cc32)[C@H]1C(=O)O)c1cccc(-c2ccccc2)c1 [Example 161]	–	–	–	++ (NAUC “++” refers to an observed NAUC 170-140% of positive control)	+++ (NAUC “+++” refers to an observed NAUC>170% of positive control)	++ (NAUC “++” refers to an observed NAUC 170-140% of positive control)
CN(CC1(c2cccc(C(C)(C)C)c2)CC1)C(=O)[C@H]1[C@H]2CC(F)(F)CN2[C@]2(C(=O)Nc3c(Cl)cc(Cl)cc32)[C@H]1C(=O)O [Example 112]	+++ (NAUC “+++” refers to an observed NAUC>170% of positive control)	+++ (NAUC “+++” refers to an observed NAUC>170% of positive control)	+++ (NAUC “+++” refers to an observed NAUC>170% of positive control)	–	–	–
O=C(Nc1cc(Cl)cc(Cl)c1)C1C(C(F)(F)c2ccc(Cl)cc2)NC2(C(=O)Nc3c(Cl)cc(Cl)cc32)C1C(=O)O (centres unmarked) [Example 67.9a, 5,7-dichloro-5,7′-((4-chlorophenyl)difluoromethyl)-4′-((3,5-dichlorophenyl)carbamoyl)-2-oxospiro[indoline-3,2′-pyrrolidine]-3′-carboxylic acid]	+ (NAUC “+” refers to an observed NAUC <140% of positive control)	–	–	–	–	–
Cn1ccc2ccc(NC(=O)[C@H]3[C@H]4CC(F)(F)CN4[C@]4(C(=O)Nc5c(Cl)cc(Cl)cc54)[C@H]3C(=O)O)cc21 [Example 136]	–	–	–	+ (NAUC “+” refers to an observed NAUC <140% of positive control)	+ (NAUC “+” refers to an observed NAUC <140% of positive control)	–
O=C(Nc1cc(Cl)cc(Cl)c1)C1C2CC(F)(F)CN2C2(C(=O)Nc3c(Cl)cc(Cl)cc32)C1C(=O)O (centres unmarked) [Example 7]	+++ (NAUC “+++” refers to an observed NAUC>170% of positive control)	–	–	–	–	–
O=C(Nc1cc(Cl)cc(Cl)c1)C1C(C(F)(F)c2ccccn2)NC2(C(=O)Nc3c(Cl)cc(Cl)cc32)C1C(=O)O (centres unmarked) [Example 72.a]	+ (NAUC “+” refers to an observed NAUC <140% of positive control)	–	–	–	–	–
O=C(Nc1cc(Cl)cc(Cl)c1F)C1C2CCCN2C2(C(=O)Nc3c(Cl)cc(Cl)cc32)C1C(=O)O (centres unmarked) [Example 37]	+++ (NAUC “+++” refers to an observed NAUC>170% of positive control)	–	+++ (NAUC “+++” refers to an observed NAUC>170% of positive control)	–	–	–
